Experimental data from US11406600B2, “Anhydrous dasatinib-containing preparation” (SAWAI PHARMACEUTICAL CO., LTD., priority 2017, dated 2022).

Columns and labels:
[1] = 1.2 million Lux.·hr total illumination and 200 W·hr/m^2 total near-ultraviolet radiation energy; cited from earlier work
[2] = Total related substances (%) by liquid chromatography after light irradiation; format: physicochemical; conditions: irradiated with 10000 Lux./hr of light for 5 days; peak area ratio, LC, 230 nm
Description: In the description, the purities of the anhydrous dasatinib were evaluated using liquid chromatography as an assessment of the stability. The ratio of the peak area of related substances derived from the anhydrous dasatinib to that of the anhydrous dasatinib was calculated to determine the total related substances (%).
(§1) In the anhydrous dasatinib-containing tablet having the film-coating part, the amount of the film-coating part and the percentage of the titanium oxide in the film-coating part were varied, respectively, and the color change (ΔE) and the total related substances (%) of the preparations irradiated with 10000 Lux./hr of light for 5 days were determined, respectively.
For the total related substances, the purities of the anhydrous dasatinib were evaluated using liquid chromatography as shown below. The ratio of the peak area of the related substances derived from the anhydrous dasatinib to that of the anhydrous dasatinib was calculated to determine the total related substances (%). Specifically, a column was octadecylsilated silica gels (particle size, 5 μm; column inner diameter, 4.6 mm; column length, 250 mm; GL Sciences), mobile phase A was 0.01 M aqueous potassium dihydrogen phosphate solution, mobile phase B was acetonitrile, and the detector was ultraviolet absorbance spectrophotometer (measured wavelength: 230 nm), respectively. […]

[3] = Color change (ΔE) after light irradiation, spectral color contrast meter; format: physicochemical; conditions: irradiated with 10000 Lux./hr of light for 5 days; based on color tone immediately after manufacturing; mean of 5 tablets
Description: Using a spectral color contrast meter (NIPPON DENSHOKU INDUSTRIES CO., LTD., Model: SE-6000), the color change ΔE value of the preparation irradiated with 10000Lux./hr of light for 5 days was measured based on the color tone of the preparation immediately after manufacturing, and the mean value of the measurement value of 5 tablets was calculated.
as §1
For color change, the ΔE value of the amount of color change was measured using a spectral color contrast meter (NIPPON DENSHOKU INDUSTRIES CO., LTD., Model: SE-6000) based on the color tone of the drug product immediately after manufacturing, and the mean value of the measured value of 5 tablets was calculated.

| total related substances (%) [2] [%] | color change ΔE value [3] | Compound | stability under light stress testing [1] |
| --- | --- | --- | --- |
| – | – | Cc1nc(Nc2ncc(C(=O)Nc3c(C)cccc3Cl)s2)cc(N2CCN(CCO)CC2)n1 [dasatinib hydrate] | no changes were observed |
| 0.51 | 18.56 | Cc1nc(Nc2ncc(C(=O)Nc3c(C)cccc3Cl)s2)cc(N2CCN(CCO)CC2)n1 [Comparative Example 1, anhydrous dasatinib] | – |
